Experimental data taken from patent publication US20110003393A1, “SYSTEMS AND METHODS FOR STUDYING INFLUENZA” (President and Fellows of Harvard College, priority 2007, published 2011).

Columns and labels:
[1] = target: T1, M2 proton channel of the influenza A virus (Influenza A virus, UniProt P0DOF5, C19S/C50S); assay type: binding, influenza A virus (A/Udorn)
[2] = target: T1, M2 proton channel of the influenza A virus; assay type: binding, influenza A virus (A/Udorn); conditions: pH 7.5, 40 mM rimantadine, 0.75 mM M2(18-60) monomer, 300 mM DHPC, four NOESY spectra

Which results are given for `CC(N)C12CC3CC(CC(C3)C1)C2` (stereo not drawn) [rimantadine]?
affinity for the open state of the channel ([1]; pH 6): much lower affinity, if any, for the open state; effect of binding on channel conformation ([1]; pH 7): stabilizes the closed conformation; location of binding site from protein-rimantadine NOEs [2]: between adjacent helices at the C-terminal end of the TM domain near the Trp41 gate, on the membrane side of the channel
